# Experimental data published in patent US9505735B2, “Compounds for treating infectious diseases” (Whitehead Institute for Biomedical Research, priority 2012, dated 2016).
# Columns and labels:
# [1] = tested on: BIP level in K562 cells; experiment: BIP immunoblot in mammalian cells; type: cell-based, human; conditions: 20 μM, 28 hour
# Procedure: Immunoblot of lysates prepared from human leukemia cells (K562) using an antibody to BIP after 28 hour exposure to tunicamycin (1 μg ml^−1), gepinacin (20 μM) or solvent vehicle (DMSO, 0.1%). Betaactin was blotted as a loading control.
# [2] = tested on: unfolded protein response; experiment: Unfolded protein response GFP reporter (UPRE-GFP), flow cytometry; type: cell-based, S. cerevisiae; conditions: 5 hours
# Procedure: Induction of the unfolded protein response in cells carrying a GFP reporter construct was monitored by flow cytometry after exposure to serial dilutions of the indicated compounds for 5 hrs.
# The plasmid pRS304-4XUPRE-GFP was linearized and integrated into the TRP1 locus of S. cerevisiae (W303) to construct a reporter strain as previously described (Cox, et al. (1993) Cell 73, 1197-1206; Pollard, et al. (1998) Mol Cell 1, 171-182). Reporter cells were grown to log phase and exposed to compound at 23° C. for 5 hours before analysis. GFP reporter induction was monitored on a Guava EasyCyte Plus cytometer. The average mean channel fluorescence of duplicate samples was determined, and the experiment was performed twice with similar results.
# [3] = tested on: S. cerevisiae strains deleted for IRE1 or HAC1; experiment: Antifungal susceptibility testing of UPR-deficient strains; type: cell-based; conditions: 48 hour
# Procedure: (§1) (A) Immunoblots of lysates prepared from S. cerevisiae treated with gepinacin showing GPI-anchor-selective impairment of protein maturation. The unprocessed (u), precursor (p), and mature (m) forms of the reporter proteins are indicated. The identity of the tagged reporter proteins (top of panel) and the antibodies used for their detection (bottom of panel) are also indicated. Treatment conditions are DMSO (0.05%), gepinacin (GPN, 10 μM) or tunicamycin (Tun, 10 μM). The same lysate was used for both blots. […] GFP expression was monitored by flow cytometry. (C) Anti-fungal susceptibility testing of strains deleted for IRE1 (activator of the UPR) or HAC1 (effector of the UPR) showing their increased sensitivity to gepinacin.
# Anti-fungal susceptibility testing of strains bearing deletion of IRE1 (activator of the UPR) or HAC1 (effector of the UPR) using either […] (A) or fluconazole (B). Growth was measured by OD600 after 48 hour exposure to serial dilutions of the compounds as indicated. Results are expressed as a fraction of the OD600 measured in the absence of gepinacin. The mean and standard deviation of triplicate determinations are shown.
# [4] = tested on: Gas1 and CPY maturation; experiment: Protein trafficking analysis (immunoblot of reporter proteins); type: cell-based, S. cerevisiae; conditions: 10 μM, 1 hour
# Procedure: as §1
# HA-tagged GAS1 was expressed in strain BY4741 CPY-GFP (Yeast GFP collection (Huh, et al. (2003) Nature 425, 686-691) under control of its own promoter using plasmid pCM-HA-GAS1. This construct was created as previously reported except in a gateway plasmid backbone (Fujita, et al. (2006) Mol Biol Cell 17, 834-850). To assess effects on trafficking, strains were incubated for 1 hour at 30° C. with test compounds. Total cellular protein (5 μg) was separated by electrophoresis (Invitrogen 8% gels) and transferred to nitrocellulose membranes. Blots were hybridized with antibodies against HA (Covance), GFP (Roche), or CPY (Invitrogen). Sizes for the various post-translationally modified products of Gas1HA2 and CPY have been previously reported (Fujita, et al. (2006) Mol Biol Cell 17, 834-850). CPY-GFP was used to facilitate discrimination of CPY processing steps because GFP is cleaved from CPY in the yeast vacuole. The experiment, however, was also performed with untagged CPY with the same results.
# [5] = tested on: C. albicans Sc5314 cell surface β-glucan; experiment: β-Glucan staining (microscopy, flow cytometry); type: cell-based
# Procedure: Overnight treatment and staining of C. albicans strain Sc5314 was performed as previously described for caspofungin treatment using YPD media at 30° C. to maintain growth in the yeast form (Wheeler, et al. (2006) PLoS Pathog 2, e35). Antibody to (1-3) β-D-glucan was obtained from Biosupplies (Australia). Cells were propidium iodide (PI) stained to assess viability and only PI-negative cells were analyzed. Microscopy was performed on a Nikon Eclipse microscope with a 100× oil objective.
# [6] = biological target: T1, Gwt1 (Saccharomyces cerevisiae, UniProt P47026); experiment: In vitro acylation assay with yeast membranes; type: biochemical, S. cerevisiae
# T1 construct: Wildtype S. cerevisiae BY4741; endogenous in cells; host or cells: S. cerevisiae BY4741 (wild type)
# T1 sequence (P47026 1-490): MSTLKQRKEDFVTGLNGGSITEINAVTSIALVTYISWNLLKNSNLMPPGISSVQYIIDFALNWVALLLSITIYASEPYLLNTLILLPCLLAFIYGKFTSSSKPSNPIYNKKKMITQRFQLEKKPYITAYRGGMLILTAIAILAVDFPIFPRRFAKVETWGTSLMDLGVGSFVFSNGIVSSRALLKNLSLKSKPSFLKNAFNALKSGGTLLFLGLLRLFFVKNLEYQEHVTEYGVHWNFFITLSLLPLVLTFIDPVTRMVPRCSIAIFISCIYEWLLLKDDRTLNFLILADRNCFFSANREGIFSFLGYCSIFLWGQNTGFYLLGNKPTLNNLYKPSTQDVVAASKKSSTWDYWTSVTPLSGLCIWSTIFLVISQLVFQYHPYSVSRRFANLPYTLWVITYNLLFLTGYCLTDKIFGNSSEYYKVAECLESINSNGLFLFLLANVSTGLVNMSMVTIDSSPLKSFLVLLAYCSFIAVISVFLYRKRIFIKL
# Procedure: Experiments were performed using a previously published protocol (Umemara, et al. (2003) J Biol Chem 278, 23639-23647) with the following modifications; UDP[^3H]GlcNAc was used instead of [^14C] and TLC plates were imaged by autoradiography. Lipid extracts were treated overnight with phosphatidylinositol-specific phospholipase C to confirm that the band identified as GlcN-(acyl)PI was resistant to cleavage (data not shown).
# Production of GPI-anchors begins on the cytoplasmic surface of the ER but is completed on the luminal side. Gwt1 (in yeast) or PIG-W (mammalian) acts at the first step on the luminal side of the ER, the acylation of glucosamine phosphatidylinositol (GlcN-PI) (FIG. 2b) (Sagane, et al. (2011) J Biol Chem 286, 14649-14658; Murakami, et al. (2003) Mol Biol Cell 14, 4285-4295). To provide direct biochemical evidence that Gwt1 is the proximal protein target of gepinacin in vitro acylation reactions were performed using yeast membrane preparations. UDP[^3H]GlcNAc was incubated with the membranes, and the resulting lipid products were recovered by chemical extraction and fractionated by silica gel thin layer chromatography (TLC). The appearance of a phospholipase-C insensitive band indicated the production of the acylated product.
structure (smiles),measurement,setting,value
COc1ccc(NC(=O)COc2cccc(OCC(C)C)c2)cc1 [gepinacin],ER function monitored by induction of BIP,[1],did not perturb ER function
same,activation of the unfolded protein response (GFP reporter),[2],"massive, concentration-dependent activation"
same,change of toxicity by deletion of HAC1 or IRE1,[3],greatly increased the toxicity
same,CPY (not GPI-anchored) processing,[4],identical
same,Gas1 (GPI-anchored) maturation: mature versus precursor form,[4],inverted
same,"increase in median channel fluorescence (β-glucan, flow cytometry) versus control",[5],4.5 fold
same,β-glucan presentation on the cell surface (immunostaining),[5]; sub-lethal concentrations (5 μM),dramatically increase
same,"acyltransferase activity, strain expressing the yeast gene",[6]; membranes of low copy plasmid strain,potently inhibited
same,acylation of GlcN-PI,"[6]; yeast membrane preparations, inactive analog at 10 μM",inhibited the acylation of GlcN-PI at low micromolar concentration
